Assay results from patent US7618971B2, “Mitotic kinesin inhibitors” (Merck & Co. Inc., priority 2004, dated 2009).

Assay: Activity of the resolved enantiomers of 1-5 (test not stated)
Conditions: enantiomers resolved on Chiralpak AD; first and second peak to elute

Row | Compound | activity of the enantiomer (active / inactive)
1 | CC(=O)N1N=C(c2cc(F)ccc2F)C[C@]1(CCCO)c1ccccc1 [(R) isomer] | inactive
2 | CC(=O)N1N=C(c2cc(F)ccc2F)C[C@@]1(CCCO)c1ccccc1 (single isomer, unassigned; isomer 3) [(S) isomer] | active
